Tests used:
[1] = system: L1210 cells; test: In vitro antitumor screening on L1210 murine leukemia cell line (growth, Coulter counter); type: cell-based; conditions: Mus musculus, L1210, 72 h; three days, 37° C., 5% CO2; read-out: L1210 Leukemia in vitro ID50
Description: L1210 cells, a murine leukemia cell line, were grown in RPMI 1640 supplemented with 5% fetal bovine serum and gentamicin (50 μg/ml).
Drug dilutions were prepared in the appropriate solvent and 20 μl of each dilution were added to 24-well Linbro tissue culture plates, followed by the addition of M 2.0 ml of cell suspension containing 3×10^4cells per ml. Solvent and medium controls were included in each test. After incubation at 37° C. for three days in 5% CO2, the contents of each well were removed and the cells counted in a ZBI Coulter counter. Percent growth was calculated relative to the controls and the levels of drug activity were expressed as ID50 in moles per liter using probit paper.

[2] = system: HCT-8 (human colon adenocarcinoma) cells; test: In vitro activity against HCT-8 human colon adenocarcinoma cells; type: cell-based; conditions: HCT-8, 60-65 hours with compound, 37° C., read-out: ID50 against human colon adenocarcinoma
Description: HCT-8 (human colon adenocarcinoma) cells are trypsinized using Trypsin-EDTA. A single cell suspension is achieved by passing the cells through a 26 gauge needle with a 20 cc syringe. A cell suspension is prepared using RPMI 1640+10% FCS+50 μg/ml garamycin with a cell concentration of approximately 30,000 cells/ml. The cell suspension is dispensed in Linbro 24-well plates; 1 ml/well. The plates are incubated for approximately 48 hours at 37° C. in a 5% CO2 atmosphere. At this time test compounds are added in the appropriate concentration. Five μl of the 200 μg/ml stock solution is added to each well in a primary test. Ten μl of the appropriate dilution is added to each well for a titration test. The plates are reincubated an additional 60-65 hours at 37° C. in a 5% CO2 atmosphere. The test is read by lysing the cells using a mix of cationic surfactant, glacial acetic acid and sodium chloride. […] of the lysed cell suspension from each well is added to 8 ml of diluent. Each sample is read on the Coulter counter (ZBI model). The activity of each sample is measured as a percentage of the controls and the data is reported as ID50, that is the molar quantity of drug required to kill 50% of the tumor cells.

[3] = system: P388 Leukemia; test: In vivo lymphocytic leukemia P388 test in mice; parameters: species or system CD2 F1 mice; conditions: intraperitoneal, two single doses four days apart
Description: The in vivo lymphocytic leukemia P388 test is carried out using the test system of the United States National Cancer Institute. The animals used are either male or female CD2 F1 mice. There are six to seven animals per test group. The tumor transplant is by intraperitoneal injection of dilute ascitic fluid containing cells of lymphocytic leukemia P388. The test compounds are administered intraperitoneally in two single doses with a four-day interval between doses at various dose levels following tumor inoculation. The animals are weighed and survivors are recorded on a regular basis for 30 days. A ratio of survival time for treated (T)/control (C) animals is calculated. The criterion for efficacy is T/C×100>125%. The positive control compound in this test is 5-fluorouracil. See Cancer Chemotherapy Reports, Part 3, 3, 1 (1972) for a comprehensive discussion of the protocol.

[4] = system: B. subtilis; test: Antibacterial disk zone of inhibition, B. subtilis; type: cell-based, Bacillus subtilis 04555; conditions: Bacillus subtilis, read-out: Inhibition Zone diameter; for zone of inhibition at 100 µg/mL: 0.1 mg/ml; for zone of inhibition at 3000 µg/mL: 3.0 mg/ml
Description: (§1) Vegetative bacterial isolates are maintained on agar slants or in liquid media, hereby designated as inoculum media. The cultures are transferred at regular intervals in such media. (See Table IV for the corresponding inoculum media of each culture.) The organisms are generally transferred either onto agar slants or into liquid inoculum media and incubated at 37° C. (at 28° C. with Xanthomonas sp.) overnight (18-20 hours).
(§2) The microbial cells from the overnight agar slants are then scraped off and suspended in saline solution (0.85% NaCl). The microbial concentrations are adjusted to a light transmission of 8.6% using a PerkinElmer Model 35 spectrophotometer (550 nm). For the organisms that are maintained in liquid media, one of two procedures is followed: (1) the culture suspension is first centrifuged at 5000 rpm for five minutes. The pellet is resuspended in 0.85% saline to 8.6% light transmittancy; (2) an aliquot of the culture suspension is to be added directly to the assay medium.
Isolate spore suspensions (Bacillus sp.) are maintained at 4° C. These suspensions serve as the inoculum media for assays.
(§3) A given molten-agar assay medium, maintained in a flask at approximately 45° C., is inoculated with 0.16-10 ml of an appropriate cell or spore suspension per 100 ml of medium. Fifty ml of the inoculated medium is poured into a Bio-Assay dish (A/S Nunc; Gibco Laboratories Catalog Number 240835) and spread evenly across the bottom, then allowed to solidify at room temperature. Each agar dish is inverted and refrigerated until used.
(§4) The compounds or samples to be tested are dissolved in suitable solvents, e.g., alcohols, dimethylsulfoxide, or N,N-dimethylformamide. The samples are generally dissolved so that the final concentration of the solvent is <10%.* The compounds are tested at different concentrations: 3,000; 1,000; 500; 100; and 10 mcg/ml. Paper discs (12.7 mm diameter) saturated with a given concentration of test compound are placed onto the seeded agar dishes with a pair of forceps.
(§5) The disked agar dishes are incubated at 37° C. (28° C. for Xanthamonas sp.) for 18-20 hours. Active compounds show a zone of inhibition around the disc. The diameter of the zone is measured in mm. The zone diameter of active compounds ranges from a minimum of 13.5 mm to as high as 60 mm. The size of the zone diameter generally reflects the activity of the compound: the larger the zone the greater the activity.

[5] = system: B. catarrhalis; test: Antibacterial disk zone of inhibition, B. catarrhalis; type: cell-based, Branhamella catarrhalis 03596; conditions: Moraxella catarrhalis, read-out: Inhibition Zone diameter; for zone of inhibition at 100 µg/mL: 0.1 mg/ml; for zone of inhibition at 500 µg/mL: 0.5 mg/ml; for zone of inhibition at 3000 µg/mL: 3.0 mg/ml
Description: as §1, §2, §3, §4, §5

[6] = system: M. faecalis; test: Antibacterial disk zone of inhibition, M. faecalis (as headed); type: cell-based, Streptococcus faecalis 05045; conditions: Enterococcus faecalis, read-out: Inhibition Zone diameter; for zone of inhibition at 100 µg/mL: 0.1 mg/ml; for zone of inhibition at 10 µg/mL: 0.01 mg/ml
Description: as §1, §2, §3, §4, §5

[7] = system: S. lutea; test: Antibacterial disk zone of inhibition, S. lutea (as headed); type: cell-based, Micrococcus luteus 05064; conditions: Micrococcus luteus, read-out: Inhibition Zone diameter; for zone of inhibition at 10 µg/mL: 0.01 mg/ml; for zone of inhibition at 3000 µg/mL: 3.0 mg/ml; for zone of inhibition at 100 µg/mL: 0.1 mg/ml
Description: as §1, §2, §3, §4, §5

[8] = system: X. phaseoli; test: Antibacterial disk zone of inhibition, X. phaseoli; type: cell-based, Xanthomonas phascoli 06002; conditions: Xanthomonas; 3.0 mg/ml; read-out: Inhibition Zone diameter
Description: as §1, §2, §3, §4, §5

Row | SMILES | IC50 [1] [nM] | IC50 [2] [nM] | T/C × 100 ([3]; 6.25 mg/kg) [%] | T/C × 100 ([3]; 12.5 mg/kg) [%] | T/C × 100 ([3]; 25 mg/kg) [%] | T/C × 100 ([3]; 50 mg/kg) [%] | zone of inhibition at 100 µg/mL [4] [mm] | zone of inhibition at 100 µg/mL [5] [mm] | zone of inhibition at 100 µg/mL [6] [mm] | zone of inhibition at 10 µg/mL [7] [mm] | zone of inhibition at 3000 µg/mL [8] [mm] | zone of inhibition at 10 µg/mL ([4]; 0.01 mg/ml) [mm] | zone of inhibition at 500 µg/mL [5] [mm] | zone of inhibition at 10 µg/mL [6] [mm] | zone of inhibition at 3000 µg/mL [7] [mm] | zone of inhibition at 3000 µg/mL [4] [mm] | zone of inhibition at 100 µg/mL [7] [mm] | zone of inhibition at 3000 µg/mL [5] [mm] | zone of inhibition at 1000 µg/mL ([7]; 1.0 mg/ml) [mm]
1 | CC(=O)c1ccc(N2CCN(c3c(C)nc(N)nc3N)CC2)cc1 [Example 5, 5-[4-(4-acetylphenyl)-1-piperazinyl]-6-methyl-2,4-pyrimidinediamine, hydrate (100:18)] | 5 | 510 | 123 | 144 | 181 | 250 | 23 | 24 | 16 | 14 | 0 | – | – | – | – | – | – | – | –
2 | Cc1nc(N)nc(N)c1N1CCN(c2ccc(S(C)(=O)=O)cc2)CC1 [Example 9, 6-Methyl-5-[4-[4-(methylsulfonyl)phenyl]-1-piperazinyl]-2,4-pyrimidinediamine, hydrate (10:2)] | 5.6 | 61 | 128 | 131 | 140 | 198 | – | – | – | – | 0 | 29 | 14 | 18 | 0 | – | – | – | –
3 | CCc1nc(N)nc(N)c1N1CCN(c2ccc(C(=O)O)cc2)CC1 [Example 11, 4-[4-(2,4-Diamino-6-ethyl-5-pyrimidinyl)-1-piperazinyl]benzoic acid] | 10 | 570 | – | – | – | – | 18 | – | – | 16 | 0 | – | 27 | 19 | – | – | – | – | –
4 | CCCc1nc(N)nc(N)c1N1CCN(c2ccc(C(=O)O)cc2)CC1 [Example 15, 4-[4-(2,4-Diamino-6-propyl-5-pyrimidinyl)-1-piperazinyl]benzoic acid] | 43 | 280 | – | – | – | – | – | – | – | – | 0 | – | 19 | 15 | – | 0 | 16 | – | –
5 | CCCc1nc(N)nc(N)c1N1CCN(c2ccc(C(=O)OCC)cc2)CC1 [Example 18, 4-[4-(2,4-Diamino-6-propyl-5-pyrimidinyl)-1-piperazinyl]benzoic acid, ethyl ester] | 9.3 | 210 | – | – | 120 | 149 | – | 15 | – | – | 0 | – | – | 15 | – | 0 | 16 | – | –
6 | Cc1nc(N)nc(N)c1N1CCN(c2ccc(C#N)cc2)CC1 [Example 19, 5-[4-(4-cyanophenyl)-1-piperazinyl]-6-methyl-2,4-pyrimidinediamine] | 1500 | > 1000 | – | – | – | – | – | – | 15 | – | 0 | – | – | – | 0 | 0 | – | 0 | –
7 | CCCc1nc(N)nc(N)c1N1CCN(c2ccc(C(=O)NC(CCC(=O)O)C(=O)O)cc2)CC1 (stereo not drawn) [drawing 24] | – | – | – | – | – | – | – | – | 16 | – | 0 | – | – | – | – | 0 | – | 18 | 16

From patent publication US4532240A, “Diaminopyrimidines” (Warner-Lambert Company, priority 1983, dated 1985)
